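Grown in 96-well plates, cells were treated for 48 hours with each compound at five concentrations. Insufficient inhibition: endpoint recorded as highest concentration tested. TGI marks complete inhibition of growth.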
What follows are compounds tested on 786-0 renal (assay: inhibition of tumour cell growth, NCI panel, 48 h).

SMILES	TGI
Nc1ncnc2c1ncn2C1OC(CSC(F)F)C(O)C1O (stereo unspecified)	> 100 µM
CC(C)[C@@H](C)CC[C@@H](C)C1CC=C2[C@@H]3CCC4C[C@@H](O[Si](C)(C)C(C)(C)C)CC[C@]4(C)C3CC[C@@]21C (stereo partly specified)	> 100 µM
COc1ccc(SS(=O)(=O)c2ccc(OC)cc2)cc1	32.7 µM
O=C(Nc1nc(=S)[nH][nH]1)C(=O)C1C(=O)Nc2ccccc2S1=O (stereo unspecified)	> 100 µM
Cn1ccnc1CCc1ccc(Cl)cc1Cl	> 100 µM

These compounds were tested on A498 renal (assay: inhibition of tumour cell growth, NCI panel, 48 h).

SMILES	TGI
Nc1ncnc2c1ncn2C1OC(CSC(F)F)C(O)C1O (stereo unspecified)	> 100 µM
CC(C)[C@@H](C)CC[C@@H](C)C1CC=C2[C@@H]3CCC4C[C@@H](O[Si](C)(C)C(C)(C)C)CC[C@]4(C)C3CC[C@@]21C (stereo partly specified)	> 100 µM
COc1ccc(SS(=O)(=O)c2ccc(OC)cc2)cc1	37 µM
Cn1ccnc1CCc1ccc(Cl)cc1Cl	> 100 µM

Each compound was assayed on A549 NSCLC (assay: inhibition of tumour cell growth, NCI panel, 48 h).

SMILES	TGI
Nc1ncnc2c1ncn2C1OC(CSC(F)F)C(O)C1O (stereo unspecified)	> 100 µM
CC(C)[C@@H](C)CC[C@@H](C)C1CC=C2[C@@H]3CCC4C[C@@H](O[Si](C)(C)C(C)(C)C)CC[C@]4(C)C3CC[C@@]21C (stereo partly specified)	> 100 µM
COc1ccc(SS(=O)(=O)c2ccc(OC)cc2)cc1	69.2 µM
O=C(Nc1nc(=S)[nH][nH]1)C(=O)C1C(=O)Nc2ccccc2S1=O (stereo unspecified)	> 100 µM
Cn1ccnc1CCc1ccc(Cl)cc1Cl	> 100 µM

Each compound was assayed on ACHN renal (assay: inhibition of tumour cell growth, NCI panel, 48 h).

SMILES	TGI
Nc1ncnc2c1ncn2C1OC(CSC(F)F)C(O)C1O (stereo unspecified)	> 100 µM
CC(C)[C@@H](C)CC[C@@H](C)C1CC=C2[C@@H]3CCC4C[C@@H](O[Si](C)(C)C(C)(C)C)CC[C@]4(C)C3CC[C@@]21C (stereo partly specified)	> 100 µM
COc1ccc(SS(=O)(=O)c2ccc(OC)cc2)cc1	33.1 µM
O=C(Nc1nc(=S)[nH][nH]1)C(=O)C1C(=O)Nc2ccccc2S1=O (stereo unspecified)	> 100 µM
Cn1ccnc1CCc1ccc(Cl)cc1Cl	> 100 µM

What follows are compounds tested on CAKI-1 renal (assay: inhibition of tumour cell growth, NCI panel, 48 h).

SMILES	TGI
Nc1ncnc2c1ncn2C1OC(CSC(F)F)C(O)C1O (stereo unspecified)	> 100 µM
CC(C)[C@@H](C)CC[C@@H](C)C1CC=C2[C@@H]3CCC4C[C@@H](O[Si](C)(C)C(C)(C)C)CC[C@]4(C)C3CC[C@@]21C (stereo partly specified)	> 100 µM
COc1ccc(SS(=O)(=O)c2ccc(OC)cc2)cc1	43.3 µM
O=C(Nc1nc(=S)[nH][nH]1)C(=O)C1C(=O)Nc2ccccc2S1=O (stereo unspecified)	> 100 µM
Cn1ccnc1CCc1ccc(Cl)cc1Cl	> 100 µM

What follows are compounds tested on CCRF-CEM leukemia (assay: inhibition of tumour cell growth, NCI panel, 48 h).

SMILES	TGI
Nc1ncnc2c1ncn2C1OC(CSC(F)F)C(O)C1O (stereo unspecified)	> 100 µM
CC(C)[C@@H](C)CC[C@@H](C)C1CC=C2[C@@H]3CCC4C[C@@H](O[Si](C)(C)C(C)(C)C)CC[C@]4(C)C3CC[C@@]21C (stereo partly specified)	> 100 µM
COc1ccc(SS(=O)(=O)c2ccc(OC)cc2)cc1	10.2 µM
O=C(Nc1nc(=S)[nH][nH]1)C(=O)C1C(=O)Nc2ccccc2S1=O (stereo unspecified)	> 100 µM
Cn1ccnc1CCc1ccc(Cl)cc1Cl	> 100 µM

Each compound was assayed on COLO 205 colon (assay: inhibition of tumour cell growth, NCI panel, 48 h).

SMILES	TGI
Nc1ncnc2c1ncn2C1OC(CSC(F)F)C(O)C1O (stereo unspecified)	> 100 µM
CC(C)[C@@H](C)CC[C@@H](C)C1CC=C2[C@@H]3CCC4C[C@@H](O[Si](C)(C)C(C)(C)C)CC[C@]4(C)C3CC[C@@]21C (stereo partly specified)	> 100 µM
COc1ccc(SS(=O)(=O)c2ccc(OC)cc2)cc1	33.2 µM
O=C(Nc1nc(=S)[nH][nH]1)C(=O)C1C(=O)Nc2ccccc2S1=O (stereo unspecified)	> 100 µM
Cn1ccnc1CCc1ccc(Cl)cc1Cl	> 100 µM

What follows are compounds tested on DLD-1 colon (assay: inhibition of tumour cell growth, NCI panel, 48 h).

SMILES	TGI
Nc1ncnc2c1ncn2C1OC(CSC(F)F)C(O)C1O (stereo unspecified)	> 100 µM
COc1ccc(SS(=O)(=O)c2ccc(OC)cc2)cc1	52.3 µM
Cn1ccnc1CCc1ccc(Cl)cc1Cl	> 100 µM

What follows are compounds tested on DMS 114 small cell lung (assay: inhibition of tumour cell growth, NCI panel, 48 h).

SMILES	TGI
Nc1ncnc2c1ncn2C1OC(CSC(F)F)C(O)C1O (stereo unspecified)	> 100 µM
CC(C)[C@@H](C)CC[C@@H](C)C1CC=C2[C@@H]3CCC4C[C@@H](O[Si](C)(C)C(C)(C)C)CC[C@]4(C)C3CC[C@@]21C (stereo partly specified)	> 100 µM
COc1ccc(SS(=O)(=O)c2ccc(OC)cc2)cc1	30.6 µM
O=C(Nc1nc(=S)[nH][nH]1)C(=O)C1C(=O)Nc2ccccc2S1=O (stereo unspecified)	> 100 µM
Cn1ccnc1CCc1ccc(Cl)cc1Cl	> 100 µM

These compounds were tested on DMS 273 small cell lung (assay: inhibition of tumour cell growth, NCI panel, 48 h).

SMILES	TGI
Nc1ncnc2c1ncn2C1OC(CSC(F)F)C(O)C1O (stereo unspecified)	> 100 µM
CC(C)[C@@H](C)CC[C@@H](C)C1CC=C2[C@@H]3CCC4C[C@@H](O[Si](C)(C)C(C)(C)C)CC[C@]4(C)C3CC[C@@]21C (stereo partly specified)	> 100 µM
O=C(Nc1nc(=S)[nH][nH]1)C(=O)C1C(=O)Nc2ccccc2S1=O (stereo unspecified)	> 100 µM
Cn1ccnc1CCc1ccc(Cl)cc1Cl	> 100 µM

What follows are compounds tested on EKVX NSCLC (assay: inhibition of tumour cell growth, NCI panel, 48 h).

SMILES	TGI
Nc1ncnc2c1ncn2C1OC(CSC(F)F)C(O)C1O (stereo unspecified)	> 100 µM
CC(C)[C@@H](C)CC[C@@H](C)C1CC=C2[C@@H]3CCC4C[C@@H](O[Si](C)(C)C(C)(C)C)CC[C@]4(C)C3CC[C@@]21C (stereo partly specified)	> 100 µM
COc1ccc(SS(=O)(=O)c2ccc(OC)cc2)cc1	71.6 µM
O=C(Nc1nc(=S)[nH][nH]1)C(=O)C1C(=O)Nc2ccccc2S1=O (stereo unspecified)	> 100 µM
Cn1ccnc1CCc1ccc(Cl)cc1Cl	> 100 µM

The compounds below were run on HCC-2998 colon (assay: inhibition of tumour cell growth, NCI panel, 48 h).

SMILES	TGI
Nc1ncnc2c1ncn2C1OC(CSC(F)F)C(O)C1O (stereo unspecified)	> 100 µM
CC(C)[C@@H](C)CC[C@@H](C)C1CC=C2[C@@H]3CCC4C[C@@H](O[Si](C)(C)C(C)(C)C)CC[C@]4(C)C3CC[C@@]21C (stereo partly specified)	> 100 µM
COc1ccc(SS(=O)(=O)c2ccc(OC)cc2)cc1	29.8 µM
O=C(Nc1nc(=S)[nH][nH]1)C(=O)C1C(=O)Nc2ccccc2S1=O (stereo unspecified)	> 100 µM
Cn1ccnc1CCc1ccc(Cl)cc1Cl	> 100 µM

These compounds were tested on HCT-116 colon (assay: inhibition of tumour cell growth, NCI panel, 48 h).

SMILES	TGI
Nc1ncnc2c1ncn2C1OC(CSC(F)F)C(O)C1O (stereo unspecified)	> 100 µM
CC(C)[C@@H](C)CC[C@@H](C)C1CC=C2[C@@H]3CCC4C[C@@H](O[Si](C)(C)C(C)(C)C)CC[C@]4(C)C3CC[C@@]21C (stereo partly specified)	> 100 µM
COc1ccc(SS(=O)(=O)c2ccc(OC)cc2)cc1	30.3 µM
O=C(Nc1nc(=S)[nH][nH]1)C(=O)C1C(=O)Nc2ccccc2S1=O (stereo unspecified)	> 100 µM
Cn1ccnc1CCc1ccc(Cl)cc1Cl	> 100 µM

Each compound was assayed on HCT-15 colon (assay: inhibition of tumour cell growth, NCI panel, 48 h).

SMILES	TGI
Nc1ncnc2c1ncn2C1OC(CSC(F)F)C(O)C1O (stereo unspecified)	> 100 µM
CC(C)[C@@H](C)CC[C@@H](C)C1CC=C2[C@@H]3CCC4C[C@@H](O[Si](C)(C)C(C)(C)C)CC[C@]4(C)C3CC[C@@]21C (stereo partly specified)	> 100 µM
COc1ccc(SS(=O)(=O)c2ccc(OC)cc2)cc1	> 100 µM
O=C(Nc1nc(=S)[nH][nH]1)C(=O)C1C(=O)Nc2ccccc2S1=O (stereo unspecified)	> 100 µM
Cn1ccnc1CCc1ccc(Cl)cc1Cl	> 100 µM

Source: PubChem BioAssay (NCI)
